Reference: patent US20230092389A1, “UNIT DOSES, AEROSOLS, KITS, AND METHODS FOR TREATING HEART CONDITIONS BY PULMONARY ADMINISTRATION” (InCarda Therapeutics, Inc., priority 2017, published 2023)
Where “and” joins values, the source holds several entries; their conditions need not be identical. Equal entries are not always repeated. Where two headings read alike, the source gives them in different places.

Tests used:
[1] = system: pigs with induced atrial fibrillation; test: ACh and burst-pacing induced AF duration, IT instillation, pigs (Example 5); type: in vivo, Yorkshire pigs; conditions: for AF duration, mean: n=3, no drug 11±0.6
Description: At one min after intrapericardial administration of ACh (1 ml of 100 mM), burst pacing was performed to initiate AF in the control cohort (FIG. 60). In the experimental cohort, after ACh and burst-pacing-induced AF, a stable period of 2 min of AF was allowed (FIG. 60). […] Table 12; FIG. 61).

[2] = beagle, dog, in vivo
Description: After induction of AF, animals were first given vehicle (0.9% NaCl, volume-matched) via IT installation.

[3] = system: anesthetized Yorkshire pigs; test: PD (hemodynamics, ECG intervals) after IV or IT in anesthetized pigs (Example 5); type: in vivo
Description: All catheters were positioned under fluoroscopic guidance. […] Data are reported as means±SEM. Statistical analyses were performed using the SAS system (9.4) to apply ANOVA with a post-hoc Dunnett's test. Statistical significance was assumed at p<0.05.

healthy volunteers [4] = test: Phase 1 (FLE-001) pharmacodynamics, ECG intervals; type: in vivo, human; conditions: for magnitude of QRS prolongation: 1 min post-inhalation; for magnitude of QRS prolongation / maximal QRS interval prolongation: post-hoc population; for prolongation in PR interval duration: Cohort 3, 60 mg eTLD
Description: The ECG recordings included: 1) Continuous real-time ECG telemetry for observation of patient safety starting at 12 hours pre-dose and continuing for 12 hours post-dose, 2) 12-lead ECGs for immediate review by medical staff to ascertain the safety of the procedures and drug administration were recorded at pre-specified (or any time as needed) before dosing (pre-dose) and after dosing (post-dose), and 3) continuous 12-lead ECG (cECG, iCardiac Holter monitoring) was recorded for 24 hours, starting 1 hour prior to dosing and up to 24 hours post dosing.

clinical = conditions: human, in vivo; for Tmax: Tmax (min after EOI)
Description: (§1) 3 cohorts of subjects, in total 34 healthy adult volunteers, were recruited for Part A study.
(§2) Part B was an open label non-randomized crossover in a cohort of 6 evaluable healthy adult volunteers.

healthy volunteers [5] = conditions: in vivo
Description: as §1, §2
In addition, the effects of changing posture from semi-recumbent to seated upright, vice-versa and during inhalation on HR and BP were assessed (Cohort 5).

[6] = cited from earlier work
[7] = IV 2 mg/Kg, n = 3, Mean ± SEM, package insert

O=C(NCC1CCCCN1)c1cc(OCC(F)(F)F)ccc1OCC(F)(F)F (stereo not shown) [flecainide]
recurrence of AF after restoration of sinus rhythm ([1]; 30-min window of observation): no recurrence of AF occurred
reduction in AF duration from the untreated condition ([1]; IT 1.5 mg/kg): 73%
AF duration, mean ([1]; IT 1.5 mg/kg): 3 ± 0.2 min
AF duration, mean ([1]; IT 1.5 mg/kg, listed as Flecainide): 3 min
AF duration, individual pigs ([1]; IT 1.5 mg/kg, pigs 239, 236, 238, no drug 12, 10, 12): 3 min (2×) and 4 min
Plasma Concentration LV at time of conversion, Mean ± SEM [2]: 1139 ± 380 ng/mL
Plasma Concentration Venous at time of conversion, Mean ± SEM [2]: 611 ± 213 ng/mL
plasma concentrations transiently higher in LV than in PA (summary) [2]: ~2.5 fold
plasma levels higher in LV than in systemic venous circulation [2]: ~2 fold
plasma concentrations transiently higher in PA than in LV (summary) ([2]; iv): ~3.5 fold
time after administration when LV and PA concentrations were nearly equal ([2]; iv): 4 to 10 min
QRS duration ([3]; IT 0.75 mg/kg, 2 min, baseline 58±1.8 ms): 64 ± 1.6 ms
QRS duration ([3]; IT 0.75 mg/kg, 5 min, baseline 58±1.8 ms): 65 ± 1.7 ms
QRS duration ([3]; IT 0.75 mg/kg, 30 min): 58 ± 0.9 ms
mean arterial pressure ([3]; IT 0.75 mg/kg, baseline 111±3.6 mmHg, p=0.9112): not significantly altered across 30 min
heart rate ([3]; IT 0.75 mg/kg, baseline 111±6.4 bpm, p=0.9970): not significantly altered across 30 min
PR interval ([3]; IT 0.75 mg/kg, baseline 130±5.3 ms, p=0.9351): not significantly changed across 30 min
JTc interval ([3]; IT 0.75 mg/kg, baseline 354±12.0 ms, p=0.7605): not significantly changed across 30 min
QTc interval ([3]; IT 0.75 mg/kg, baseline 435±12.9 ms, p=0.5505): not significantly changed across 30 min
QRS duration ([3]; IT 1.5 mg/kg, 2 min, baseline 57±0.4 ms): 68 ± 1.9 ms
QRS duration ([3]; IT 1.5 mg/kg, 5 min): 69 ± 2.2 ms
QRS duration ([3]; IT 1.5 mg/kg, 10 min): 67 ± 1.7 ms
QRS duration ([3]; IT 1.5 mg/kg, 15 min): 64 ± 1.3 ms
QRS duration ([3]; IT 1.5 mg/kg, 30 min): 60 ± 0.9 ms
mean arterial pressure ([3]; IT 1.5 mg/kg, baseline 108±9.4 mmHg, p=0.9894): not significantly altered across 30 min
heart rate ([3]; IT 1.5 mg/kg, baseline 118±13.2 bpm, p=0.9999): not significantly altered across 30 min
PR interval ([3]; IT 1.5 mg/kg, baseline 127±2.3 ms, p=0.0819): not significantly changed across 30 min
JTc interval ([3]; IT 1.5 mg/kg, baseline 364±11.5 ms, p=0.9968): not significantly changed across 30 min
QTc interval ([3]; IT 1.5 mg/kg, baseline 436±7.1 ms, p=0.1510): not significantly changed across 30 min
heart rate ([3]; IV 2 mg/kg over 2 min, baseline 103±1.9 bpm, p=0.9936): not significantly altered across 30 min
QRS duration ([3]; IV 2 mg/kg, 2 min, baseline 58±1.9 ms): 77 ± 6.2 ms
QRS duration ([3]; IV 2 mg/kg, 5 min, baseline 58±1.9 ms): 76 ± 4.8 ms
QRS duration ([3]; IV 2 mg/kg, 30 min): 59 ± 3.0 ms
mean arterial pressure ([3]; IV 2 mg/kg, baseline 105±6.7 mmHg, p=0.8852): not significantly altered across 30 min
PR interval ([3]; IV 2 mg/kg, baseline 127±7.8 ms, p=0.5161): not significantly changed across 30 min
JTc interval ([3]; IV 2 mg/kg, baseline 367±7.4 ms, p=0.9686): not significantly changed across 30 min
QTc interval ([3]; IV 2 mg/kg, baseline 442±7.9 ms, p=0.35): not significantly changed across 30 min
magnitude of QRS prolongation (healthy volunteers [4]; 20 mg eTLD): 3.0 ms
magnitude of QRS prolongation (healthy volunteers [4]; 40 mg eTLD): 8.2 ms
magnitude of QRS prolongation (healthy volunteers [4]; 60 mg eTLD): 16 ms
difference of QRS interval duration from pre-dose baseline (healthy volunteers [4]; 2 to 24 hours post-inhalation of 30 mg eTLD, baseline 78±2 msec): < 2 ms
PR interval (healthy volunteers [4]; 8 and 24 hours post-IV infusion): fully returned to pre-drug baseline
QRS interval duration (healthy volunteers [4]; 30 min after completion of inhalation, 20-60 mg eTLD): returned to near pre-dose levels
PR interval longer than pre-drug baseline (healthy volunteers [4]; 2 hours and beyond post-oral IH flecainide): approximately 2 msec
PR interval (healthy volunteers [4]; 2 hours and beyond post-oral IH flecainide, baseline 158.5 msec): 160 ms
QRS interval duration longer than baseline (healthy volunteers [4]; 2 hours following IV infusion, baseline 78±2 msec): 12.5 ms
PR interval longer than pre-drug baseline (healthy volunteers [4]; 2 hours post-IV infusion, baseline 161±3 msec): ~12 ms
QRS interval duration longer than baseline (healthy volunteers [4]; 24 hours following IV infusion): ~7 ms
mean ΔPR (healthy volunteers [4]; Cohort 1, 20 mg eTLD, 1 minute post-dosing): -6 ms
mean ΔPR (healthy volunteers [4]; Cohort 1, 20 mg eTLD, 3 minutes post-dosing): -4.5 ms
mean ΔPR (healthy volunteers [4]; Cohort 1, 20 mg eTLD, 10 minutes to 4 hours after dosing): smaller than −3.0 msec
mean ΔQRS (healthy volunteers [4]; Cohort 1, 20 mg eTLD, between 1 and 3 minutes after end of inhalation): small increase
QRS duration (healthy volunteers [4]; Cohort 2, 40 mg eTLD, between 1 and 3 minutes post-dosing): transient increase
time of maximal increase in QRS interval duration (healthy volunteers [4]; Cohort 2, 40 mg eTLD, majority of subjects): 1 min
prolongation in PR interval duration (healthy volunteers [4]; 1 to 5 min): ~5 ms
prolongation in PR interval duration (healthy volunteers [4]; 10 and 15 minutes): up to 12 msec
non-specific intraventricular conduction delay (healthy volunteers [4]; Cohort 5, IV infusion): 3 of 6 subjects
maximal increase in QRS interval duration, mean (±SEM) (healthy volunteers [4]; Cohort 5, IV infusion 2 mg/kg): 34.2 ± 2.4 ms
duration of QRS widening (healthy volunteers [4]; Cohort 5, inhalation): 15 to 30 min
maximal increase in QRS interval duration, mean (±SEM) (healthy volunteers [4]; Cohort 5, inhalation 30 mg eTLD): 12.4 ± 2.6 ms
duration of QRS widening (healthy volunteers [4]; Cohort 5, intravenous): > 60 min
non-specific intraventricular conduction delay (healthy volunteers [4]; Cohort 5, oral inhalation eTLD 30 mg): not observed
duration of intraventricular conduction delay (healthy volunteers [4]; IV 2 mg/kg, 10 min infusion (FIG. 34)): 5 to 10 min
maximal PR interval prolongation (healthy volunteers [4]; IV infusion 2 mg/kg): 25 ms
T-wave morphology (healthy volunteers [4]; IV infusion 2 mg/kg (FIG. 36)): T-wave notching
lower plasma concentration by inhalation for QRS prolongation of magnitude achieved by IV (6.2/2.7) (healthy volunteers [4]; Part B): 2.3 fold
maximal QRS interval prolongation (healthy volunteers [4]; eTLD 20 mg): 3.5±1.0
smaller change in QRS interval duration, inhalation vs IV infusion (healthy volunteers [4]; eTLD 30 mg vs ~150 mg IV): 2.7 fold
maximal QRS interval prolongation (healthy volunteers [4]; eTLD 40 mg): 10±1.5
maximal QRS interval prolongation (healthy volunteers [4]; eTLD 60 mg): 16±1.4
PR interval (healthy volunteers [4]; end of IV infusion 2 mg/kg, 164±1 msec 45 min prior): 187 ± 6 ms
T-wave morphology (healthy volunteers [4]; inhalation 20, 30, 40 mg eTLD): No changes
lower plasma level following inhalation at similar ΔQRS (healthy volunteers [4]; inhalation vs 5 min into IV infusion): 2.6 fold
PR interval prolongation from start of inhalation (healthy volunteers [4]; inhaled 30 mg eTLD, 5 min after completion of inhalation): 12 ms
changes of PR interval duration (healthy volunteers [4]; inhaled 20 or 40 mg eTLD): Minimal or no changes
temporal relation between plasma concentration and ΔQRS (healthy volunteers [4]; non-steady state, IV and inhalation): changes in QRS interval duration lag those of the peripheral venous concentrations
maximal PR interval prolongation (healthy volunteers [4]; oral inhalation 30 mg eTLD): 12 ms
maximal decrease in QRS amplitude (average of several tracings) (healthy volunteers [4]; subject R222, 40 mg eTLD): ~480 μV
maximal increase in QRS duration (average of several tracings) (healthy volunteers [4]; subject R222, 40 mg eTLD): ~9 ms
increase in QRS duration (QRSd) (healthy volunteers [4]; subject R222, 40 mg eTLD, 1 minute post-dosing): 10 ms
decrease in amplitude of the R-wave (QRSa) (healthy volunteers [4]; subject R222, 40 mg eTLD, 3 min post-dosing): 400 μV
half-life (clinical; both): 3.5 to 4.2 min
half-life (clinical; inhaled or intranasal, 30 mg): 4.67 min
Tmax (clinical; inhaled or intranasal, 30 mg): ≤ 1 min
half-life (clinical; iv, 2 mg/kg): 4.28 min
Tmax (clinical; iv, 2 mg/kg): 1 to 60 min
dose dependence of magnitude of HR increases (healthy volunteers [5]): not dose-dependent
magnitude of blood pressure changes vs placebo (healthy volunteers [5]): similar
HR (healthy volunteers [5]; iv, 2 mg/kg): An increase in HR was observed
systolic and diastolic BP (healthy volunteers [5]; iv, 2 mg/kg): Decreases in systolic and diastolic BP
AUClast [6, 7]: 4211 ± 456 ng·h/mL
Cmax [6, 7]: 1644 ± 534 ng/mL
Tmax ([6]; IV 2 mg/Kg, n = 3, package insert): 10.0 min
Dist. t1/2 ([6]; in vivo, iv, 2 mg/kg): 2.6 ± 0.7 min
Elim. t1/2 ([6]; in vivo, iv, 2 mg/kg): 558 ± 6 min
pH of solution in water (2.6 mg/mL solution): 5.0
appearance of solution (diltiazem hydrochloride 50 mg/ml, flecainide acetate 30 mg/ml in distilled water): clear with no visible particulate matter
